Experimental data reported in US12077503B2, “Substituted cyclic amides and their use as herbicides” (FMC CORPORATION, priority 2015, dated 2024).

Tests used:
Format in all cases: in vivo
[1] = tested on: velvetleaf (Abutilon theophrasti); experiment: Test G Post-Emergence Protocol; settings: Abutilon theophrasti, post-emergence, 312 h, read-out: Velvetleaf damage rating
Procedure, shortened: (§1)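 Damage was rated 13 days after treatment from 0 (none) to 100 (plant killed). Compound was applied as a spray at 15.625, 62.5 or 250 g/ha in 50:50 acetone/water containing 0.5% Tween 20, onto 8-day-old potted plants kept in a glasshouse (24/16 °C, 14 h light, 65% humidity).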

[2] = tested on: giant foxtail (Setaria faberi); experiment: Test G Post-Emergence Protocol; settings: Setaria faberi, post-emergence, 312 h, read-out: Foxtail, Giant damage rating
Procedure, shortened: as §1

[3] = tested on: ivy-leaved morning glory (Ipomoea hederacea); experiment: Test G Post-Emergence Protocol; settings: Ipomoea, post-emergence, 312 h, read-out: Morningglory, Ivy-leaved damage rating
Procedure, shortened: as §1

corn (Zea mays) [4] = experiment: Test G Post-Emergence Protocol; settings: Zea mays, post-emergence, 312 h, read-out: Corn damage rating
Procedure, shortened: as §1

[5] = tested on: barnyardgrass (Echinochloa crus-galli); experiment: Test G Post-Emergence Protocol; settings: Echinochloa crus-galli, post-emergence, 312 h, read-out: Barnyardgrass damage rating
Procedure, shortened: as §1

[6] = tested on: redroot pigweed (Amaranthus retroflexus); experiment: Test G Post-Emergence Protocol; settings: Amaranthus retroflexus, post-emergence, 312 h, read-out: Pigweed, Redroot damage rating
Procedure, shortened: as §1

[7] = tested on: velvetleaf (Abutilon theophrasti); experiment: Test G Pre-Emergence Protocol; settings: Abutilon theophrasti, pre-emergence, 312 h, evaluated after 13 days
Procedure, shortened: (§2)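 Pots of seeds in standard soil were grown for one day in a glasshouse (24/16 °C day/night, 14 h light, 65% humidity), then sprayed with compound in acetone/water 50:50 with 0.5% Tween 20 at 15.625, 62.5 or 250 g/ha. Damage was scored after 13 days on a 0 (none) to 100 (total) scale.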

[8] = tested on: giant foxtail (Setaria faberi); experiment: Test G Pre-Emergence Protocol; settings: Setaria faberi, pre-emergence, 312 h, evaluated after 13 days
Procedure, shortened: as §2

[9] = tested on: ivy-leaved morning glory (Ipomoea hederacea); experiment: Test G Pre-Emergence Protocol; settings: Ipomoea, pre-emergence, 312 h, evaluated after 13 days
Procedure, shortened: as §2

corn (Zea mays) [10] = experiment: Test G Pre-Emergence Protocol; settings: Zea mays, pre-emergence, 312 h, evaluated after 13 days
Procedure, shortened: as §2

[11] = tested on: barnyardgrass (Echinochloa crus-galli); experiment: Test G Pre-Emergence Protocol; settings: Echinochloa crus-galli, pre-emergence, 312 h, evaluated after 13 days
Procedure, shortened: as §2

[12] = tested on: redroot pigweed (Amaranthus retroflexus); experiment: Test G Pre-Emergence Protocol; settings: Amaranthus retroflexus, pre-emergence, 312 h, evaluated after 13 days
Procedure, shortened: as §2

[13] = 15.625 g ai/ha, evaluated after 13 days (100=total damage to plant; 0=no damage to plant)
[14] = 62.5 g ai/ha, evaluated after 13 days, 100=total damage to plant, 0=no damage to plant
[15] = 250 g ai/ha, evaluated after 13 days, 100=total damage to plant, 0=no damage to plant

How did the pest or weed control at 15.625 g/ha [1, 13] turn out when `Cc1nc(F)ccc1NC(=O)[C@@H]1C(=O)N(C)C[C@H]1c1ccc(C(F)(F)F)cc1` (racemic) [Compound 1654] was run?
Its pest or weed control at 15.625 g/ha is 0%.

What about the pest or weed control at 62.5 g/ha [1, 14] of the same compound?
Its pest or weed control at 62.5 g/ha is 20%.

What about the pest or weed control at 250 g/ha [1, 15] of the same compound?
The pest or weed control at 250 g/ha was 40%.

What about the pest or weed control at 15.625 g/ha [2, 13] of the same compound?
The pest or weed control at 15.625 g/ha was 20%.

What about the pest or weed control at 62.5 g/ha [2, 14] of the same compound?
The pest or weed control at 62.5 g/ha was 40%.

And the pest or weed control at 250 g/ha [2, 15]?
The pest or weed control at 250 g/ha was 80%.

And the pest or weed control at 15.625 g/ha [3, 13]?
Its pest or weed control at 15.625 g/ha is 10%.

And the pest or weed control at 62.5 g/ha [3, 14]?
The pest or weed control at 62.5 g/ha was 20%.

What about the pest or weed control at 250 g/ha [3, 15] of the same compound?
The pest or weed control at 250 g/ha was 30%.

What about the plant injury at 15.625 g/ha (corn (Zea mays) [4]; [13]) of the same compound?
The plant injury at 15.625 g/ha was 0%.

And the plant injury at 62.5 g/ha (corn (Zea mays) [4]; [14])?
Its plant injury at 62.5 g/ha is 0%.

And the plant injury at 250 g/ha (corn (Zea mays) [4]; [15])?
The plant injury at 250 g/ha was 20%.

And the pest or weed control at 15.625 g/ha [5, 13]?
The pest or weed control at 15.625 g/ha was 0%.

And the pest or weed control at 62.5 g/ha [5, 14]?
The pest or weed control at 62.5 g/ha was 20%.

And the pest or weed control at 250 g/ha [5, 15]?
Its pest or weed control at 250 g/ha is 60%.

And the pest or weed control at 15.625 g/ha [6, 13]?
The pest or weed control at 15.625 g/ha was 10%.

And the pest or weed control at 62.5 g/ha [6, 14]?
The pest or weed control at 62.5 g/ha was 20%.

What about the pest or weed control at 250 g/ha [6, 15] of the same compound?
The pest or weed control at 250 g/ha was 30%.

What about the pest or weed control at 15.625 g/ha ([7]; 15.625 g ai/ha, read-out: Velvetleaf damage rating (100=total damage to plant; 0=no damage to plant)) of the same compound?
The pest or weed control at 15.625 g/ha was 0%.

What about the pest or weed control at 62.5 g/ha ([7]; 62.5 g ai/ha, 100=total damage to plant, 0=no damage to plant, read-out: Velvetleaf damage rating) of the same compound?
Its pest or weed control at 62.5 g/ha is 0%.

What about the pest or weed control at 250 g/ha ([7]; 250 g ai/ha, read-out: Velvetleaf damage rating (100=total damage to plant; 0=no damage to plant)) of the same compound?
Its pest or weed control at 250 g/ha is 10%.

And the pest or weed control at 15.625 g/ha ([8]; 15.625 g ai/ha, read-out: Foxtail, Giant damage rating (100=total damage to plant; 0=no damage to plant))?
Its pest or weed control at 15.625 g/ha is 20%.

What about the pest or weed control at 62.5 g/ha ([8]; 62.5 g ai/ha, 100=total damage to plant, 0=no damage to plant, read-out: Foxtail, Giant damage rating) of the same compound?
The pest or weed control at 62.5 g/ha was 60%.

What about the pest or weed control at 250 g/ha ([8]; 250 g ai/ha, read-out: Foxtail, Giant damage rating (100=total damage to plant; 0=no damage to plant)) of the same compound?
Its pest or weed control at 250 g/ha is 90%.

What about the pest or weed control at 15.625 g/ha ([9]; 15.625 g ai/ha, read-out: Morningglory, Ivy-leaved damage rating (100=total damage to plant; 0=no damage to plant)) of the same compound?
The pest or weed control at 15.625 g/ha was 0%.

What about the pest or weed control at 62.5 g/ha ([9]; 62.5 g ai/ha, 100=total damage to plant, 0=no damage to plant, read-out: Morningglory, Ivy-leaved damage rating) of the same compound?
Its pest or weed control at 62.5 g/ha is 0%.

And the plant injury at 15.625 g/ha (corn (Zea mays) [10]; 15.625 g ai/ha, read-out: Corn damage rating (100=total damage to plant; 0=no damage to plant))?
The plant injury at 15.625 g/ha was 0%.

What about the plant injury at 62.5 g/ha (corn (Zea mays) [10]; 62.5 g ai/ha, 100=total damage to plant, 0=no damage to plant, read-out: Corn damage rating) of the same compound?
Its plant injury at 62.5 g/ha is 0%.

And the plant injury at 250 g/ha (corn (Zea mays) [10]; 250 g ai/ha, read-out: Corn damage rating (100=total damage to plant; 0=no damage to plant))?
The plant injury at 250 g/ha was 20%.

And the pest or weed control at 15.625 g/ha ([11]; 15.625 g ai/ha, read-out: Barnyardgrass damage rating (100=total damage to plant; 0=no damage to plant))?
The pest or weed control at 15.625 g/ha was 0%.

What about the pest or weed control at 62.5 g/ha ([11]; 62.5 g ai/ha, 100=total damage to plant, 0=no damage to plant, read-out: Barnyardgrass damage rating) of the same compound?
The pest or weed control at 62.5 g/ha was 0%.

And the pest or weed control at 250 g/ha ([11]; 250 g ai/ha, read-out: Barnyardgrass damage rating (100=total damage to plant; 0=no damage to plant))?
Its pest or weed control at 250 g/ha is 80%.

What about the pest or weed control at 15.625 g/ha ([12]; 15.625 g ai/ha, read-out: Pigweed, Redroot damage rating (100=total damage to plant; 0=no damage to plant)) of the same compound?
The pest or weed control at 15.625 g/ha was 0%.

What about the pest or weed control at 62.5 g/ha ([12]; 62.5 g ai/ha, 100=total damage to plant, 0=no damage to plant, read-out: Pigweed, Redroot damage rating) of the same compound?
The pest or weed control at 62.5 g/ha was 0%.

What about the pest or weed control at 250 g/ha ([12]; 250 g ai/ha, read-out: Pigweed, Redroot damage rating (100=total damage to plant; 0=no damage to plant)) of the same compound?
The pest or weed control at 250 g/ha was 0%.
